Results on two molecules are retold here after article PMC8792282 (Redox Biology, 2022).

Like-named read-outs stand apart in the source and are kept apart here.

The target in assay [1] is T1, Protein disulfide isomerase (PDI) (Homo sapiens, UniProt P07237). As to the kind of experiment: insulin reduction assay. It counts as biochemical.
For assay [2], the target named is T1, Protein disulfide isomerase (PDI). The assay can be described thus: insulin reduction assay. It counts as biochemical. The source holds these as a separate data set.

T1 sequence (P07237 18-508): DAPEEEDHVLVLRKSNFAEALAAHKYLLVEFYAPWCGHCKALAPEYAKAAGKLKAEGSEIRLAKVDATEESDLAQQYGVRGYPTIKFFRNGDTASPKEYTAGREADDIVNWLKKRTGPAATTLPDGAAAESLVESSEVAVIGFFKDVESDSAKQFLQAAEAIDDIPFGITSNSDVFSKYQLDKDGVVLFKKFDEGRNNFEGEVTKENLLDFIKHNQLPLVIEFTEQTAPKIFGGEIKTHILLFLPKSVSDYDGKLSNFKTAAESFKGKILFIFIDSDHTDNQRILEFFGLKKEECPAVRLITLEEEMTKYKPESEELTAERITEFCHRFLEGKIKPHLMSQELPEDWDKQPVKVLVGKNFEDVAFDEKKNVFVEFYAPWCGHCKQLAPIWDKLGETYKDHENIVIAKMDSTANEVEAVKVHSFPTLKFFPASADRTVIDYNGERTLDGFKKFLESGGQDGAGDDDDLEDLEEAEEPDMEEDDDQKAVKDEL

For orientation: IC50 means the point on the concentration scale where inhibition reaches its midpoint. A high value points to lower potency. bepristat 2a: the IC50 in assay [1] was 700 nM. In other words, the sub-micromolar range.
For the molecule `C[C@@H]1O[C@@H](OC[C@H]2O[C@@H](Oc3c(-c4ccc(O)c(O)c4)oc4cc(O)cc(O)c4c3=O)[C@H](O)[C@@H](O)[C@@H]2O)[C@H](O)[C@H](O)[C@H]1O` [rutin], half-maximal inhibition in assay [2] (IC50) was put at 4500 nM.
